Source: patent publication US11510964B2, “Macrocyclic peptides to decrease c-Myc protein levels and reduce cancer cell growth” (University of Kansas, priority 2017, dated 2022)
“Also recorded” adds a separate entry of the source. Non-standard residues stand in square brackets, D forms with d. Residues, ends and D or L forms follow the SMILES beside them.

Columns and labels:
[1] = tested on: PC-3 cells; assay: Annexin V-APC/PI apoptosis assay; format: cell-based, human; details: PC-3, 10 μM
Procedure: The extent of apoptosis was analyzed by detecting surface expression of phosphatidylserine on apoptotic cells using an Annexin V-APC/PI dual staining apoptosis detection kit I (BD Biosciences) according to the manufacturer's protocol. Following treatment of PC-3 cells with 10 μM [D-Trp]CJ-15,208 or vehicle for 24 h or 48 h, the cells were collected, washed twice with cold PBS, and resuspended in 1× binding buffer at a concentration of 1×10^6 cells/mL. Cell suspension (100 μL) was transferred to a 5 ml culture tube, and 5 μL of Annexin V-APC and 25 μL of PI (50 μg/mL) were added. The cells were incubated for 15 min at room temperature in the dark with gentle vortexing, 400 μL of 1× binding buffer was then added to each sample, and the samples were analyzed using a Beckman-Coulter MoFlo XDP flow cytometer within one hour. The number of viable, apoptotic and necrotic cells were quantified using FlowJo v10.0.7. The apoptosis fraction (%) was calculated as (number of apoptotic cells/the number of total cells observed)×100%.^38
(§1) Each experiment was performed in triplicate unless otherwise stated in the figure legend. GraphPad Prism 5 was used to determine IC50 values. Data represent the mean value+/−SEM. Compound vs. vehicle treated cells in the cell cycle phase and apoptosis experiments (FIGS. 5-8) were compared using the student's t-test, with a two-tailed, unpaired method, using the Prism software. The effects of compound vs. vehicle treatment on protein levels (FIG. 10) were evaluated by one-way ANOVA with Dunnett's test for multiple comparisons.

[2] = tested on: c-Myc mRNA in PC-3 cells; assay: c-Myc mRNA measurement (real-time PCR); format: cell-based, human; details: 10 μM, 0 h to 48 h
Procedure: PC-3 cells were grown in 10 cm petri dishes to 75% confluency, and then treated with [D-Trp] CJ-15,208 (10 μM) for 2-48 h. Cells were harvested and the total RNA from each sample was isolated using the Aurum Total RNA Mini Kit #732-6820 (Bio-Rad) per the manufacturer's instructions. The RNA concentration in the sample was determined using a NanoDrop ND-1000 spectrophotometer. Total RNA (1 μg) from each sample was used to synthesize cDNA using the iScript cDNA Synthesis Kit (BioRad). Real-time PCR was performed with a Power-SYBR Green PCR Master Mix (Applied Biosystems) using the following thermal cycles: initial activation at 95° C. for 5 min, followed by 40 cycles of 95° C. for 15 s and 60° C. for 1 min. The fluorescence was determined at the melting temperature of the product for 20 s (ABI PRISM 7000 Sequence Detection System, Applied Biosystems). The following primer sets were used to amplify regions of c-Myc and GAPDH (internal control): c-Myc (forward: 5′-CTG GTG CTC CAT GAG GAG-3′ (SEQ ID NO: 1), reverse: 5′-AGG TGA TCC AGA CTC TGA C-3′ SEQ ID NO: 2)) and GAPDH (forward: 5′-CCA TGG AGA AGG CTG GGG-3′ (SEQ ID NO: 3), reverse: 5′-CAAATGTGTCATGGATGACC-3′ SEQ ID NO: 4)). The levels of c-Myc mRNA were normalized to the GAPDH mRNA levels.^37

[3] = tested on: LNCaP cells; assay: Cell viability assay (Trypan Blue); format: cell-based, human; details: 48 h and 72 h
Procedure: (§2) The viability of prostate cancer cells was determined using Trypan Blue (Sigma) per the manufacturer's instructions. Cells were grown in 6 well plates to a density of 1×10^5 cells/well to 75% confluency and treated with compound in 0.5% DMSO at the indicated concentrations for 24-72 h, with 0.5% DMSO as the vehicle control. After treatment, the cell media from each well was collected. The cells were washed with phosphate buffer saline (PBS), trypsinized, and collected. All of the cells, combined media, and washes were centrifuged at 250×g for 5 min. The supernatant was discarded, and the cell pellet was resuspended in 500 μL PBS. Trypan blue (10 μL) was added to 100 μL of resuspended cells, and the solution incubated for 10 min. The cell number in 10 μL was then counted using a hematocytometer. Viable cells (not stained) were distinguished from dead cells (colored blue) and the % viable cells calculated as follows: [(number of white cells)/(number of total cells (white+blue))]*100 and compared with untreated cells.^16

[4] = tested on: 22Rv1 cells; assay: Cell viability assay (Trypan Blue); format: cell-based, human; details: 48 h and 72 h
Procedure: as §2

[5] = tested on: PC-3 cells; assay: Cell viability assay (Trypan Blue); format: cell-based, human; details: 48 h and 72 h
Procedure: as §2

[6] = tested on: BPH-1 cells; assay: Cell proliferation assay (WST-1); format: cell-based
Procedure: (§3) Human prostate cancer PC-3 cells were cultured and maintained in EMEM (ATCC), non-prostate HEK (human embryonic kidney) cells were cultured in DMEM, human prostate cancer DU145, LNCaP, 22Rv1 cells were cultured in RPMI 1640 (ATCC), and normal BPH-1 prostate cells and prostate cancer C4-2 cell line were cultured in RPMI 1640 (ATCC), all containing 10% fetal bovine serum (Atlanta Biologicals) and 1% penicillin/streptomycin (Invitrogen). Cells were grown at 37° C. in humidified air with 5% CO2 and passaged every fourth to fifth day following trypsinization with trypsin/EDTA (Invitrogen).^16
(§4) PC-3, LNCaP, DU 145, 22Rv1, C4-2, BPH-1, and HEK cells were grown to a density of 2000 cells/well in 96 well plates and treated with [D-Trp]CJ-15,208 or other peptides for 24-72 h in duplicate. Media containing [D-Trp]CJ-15,208 was changed every 24 h. The proliferation of treated cells was determined using the cell proliferation reagent WST-1 (Roche) per the manufacturer's instructions and compared to […] control cells in 1% DMSO in media. After treatment with compound 10 μL of the reagent was added to the well in 100 μL culture media, and the cells incubated at 37° C. for 30 min. The absorbance of the media in each well was measured at […] using a plate reader (BioTek). The percentage cell proliferation was normalized to vehicle treated control cells calculated as: (mean absorbance of sample/mean absorbance of control cells)×100.^38
as §1

[7] = tested on: C4-2 cells; assay: Cell proliferation assay (WST-1); format: cell-based
Procedure: as §3, §4, §1

## O=C1N[C@H](Cc2c[nH]c3ccccc23)C(=O)N[C@@H](Cc2ccccc2)C(=O)N2CCC[C@@H]2C(=O)N[C@H]1Cc1ccccc1 [[D-Trp]CJ-15,208, cyclo[Phe-D-Pro-Phe-D-Trp]] (cyclo(F[dP]F[dW]))
[1]; 24 h
  number of cells in early or late apoptosis: No significant change
[1]; 48 h
  increase of number of cells in early apoptosis vs. vehicle: 10 fold
  increase of number of cells in late apoptosis vs. vehicle: 3 fold
[2]
  c-Myc mRNA expression: did not affect mRNA expression; also recorded: did not alter cmyc mRNA levels
[3]
  cell death (Trypan blue): resulted in cell death
[4]
  cell death (Trypan blue): resulted in cell death
[5]
  cell death (Trypan blue): resulted in cell death
[6]; 48 h
  IC50, cell growth: No effect
[6]; 72 h
  IC50, cell growth: No effect
[6]; time not stated
  effect on cell proliferation / cytotoxicity: No cytotoxicity was observed; also recorded: did not prevent cell proliferation
[7]; 48 h
  IC50, cell growth: No effect
[7]; 72 h
  IC50, cell growth: No effect
[7]; time not stated
  effect on cell proliferation: no effect; also recorded: did not prevent cell proliferation
